Laboratory results published in patent US20090031455A1 (priority 2004, published 2009).

What was measured:
recombinant FaPINH = test: recombinant enzyme activity assay with yeast microsomes, GC-MS; details: for hydroxylation of alternative substrates by PINH: position analogous to α-pinene C10 (C7), FIGS. 3-4
Experimental: Microsome preparations were evaluated by CO-difference spectrum and were assayed for (−)-α-pinene hydroxylation. The reaction mixture for the recombinant enzyme activity assay, in a final volume of 1 ml, contained 50 mM Tris-HCl pH 7.4, 1 mM EDTA, 0.1 mM DTT, 0.8 units glucose-6-phosphate dehydrogenase, 2 mM glucose 6-phosphate, 5 μM FAD, 5 μM FMN, 1 mM NADPH, and 200 μL of microsomal preparation. 200 nmol (−)-α-pinene (in less than 10 μl, which has no detectable influence on the reaction) were added to the mixture to start the reaction, which was allowed to proceed for 2 hours at 30° C. with gentle shaking. Microsomes isolated from cells harboring the empty vector were employed as controls. The reaction was stopped by chilling the mixture on ice and extracting twice with 1.0-mL portions of pentane:diethyl ether (4:1). The combined extract was passed through a short column of silica gel and anhydrous MgSO4, after which the column was washed with 1.5 mL diethyl ether to remove residual compounds. After concentration under N2, the samples were analyzed by GC-MS. Samples (2 μL) were analyzed by an automated injector on a Hewlett-Packard 5890 series II gas chromatograph equipped with a 30 m×0.25 mm inner diameter fused silica column coated with a 0.25 μm film of HP 5MS (Hewlett-Packard), and a Hewlett-Packard 5972A Mass Selective Detector. GC oven temperature was programmed at an initial temperature of 45° C. for 1 min, with a ramp of 10° C. min-1 to 280° C., and a final time of 10 min. Full spectra were recorded for major reaction products, which were identified by comparing retention times with authentic standards and by comparing spectra with those of the NSB75K library, using the G1033A NIST probability based matching algorithm.

Pythium aphanidermatum = type: cell-based
Phytophthora infestans [1] = type: cell-based; details: P. infestans; for inhibition of spore germination: FIG. 7
Botrytis elliptica [2] = type: cell-based
Botrytis elliptica [3] = type: cell-based; remark: listed apart in the source
Phytophthora infestans [4] = type: cell-based; details: P. infestans; for inhibition of mycelial growth: FIG. 8
[5] = system: PINH expressed in Saccharomyces cerevisiae; test: in vivo bioconversion assay with intact transgenic yeast cells expressing PINH; details: 500 μM (−)-α-pinene, 2 h at 30° C.
Experimental: Transformants were selected on SGI medium, while expression was carried out in YPL medium (induction with 2% galactose) (Pompon et al., 1996). Intact cells were harvested and used for an in vivo assay, by incubation in 50 mM Tris-HCl buffer (pH 7.4) containing 0.1 mM DTT and 1 mM EDTA in the presence of 500 μM (−)-α-pinene. The reaction was allowed to proceed for 2 h at 30° C. with gentle shaking. Controls containing no substrate, and cells containing vector without insert, were also used for in vivo assays. The assays were extracted and analysed using GC-MS as described under Example 3.

plant pathogens = type: cell-based; details: for antimicrobial effect compared with geraniol: data not shown; for antimicrobial effect compared with perilla alcohol: FIGS. 7-8

CC1=CC=C(C(C)C)CC1 [α-terpinene]
hydroxylation of alternative substrates by PINH (recombinant FaPINH): hydroxylated at the same position

C=C(C)[C@@H]1CC=C(CO)CC1 [perilla alcohol]
effectiveness against mycelial growth compared with linalool (Pythium aphanidermatum): more effective
inhibition of mycelial growth (Pythium aphanidermatum): effectively inhibited
inhibition of spore germination (Phytophthora infestans [1]): effective inhibitors
effectiveness against spore germination relative to linalool and myrtenol (Botrytis elliptica [2]): about 2 fold
inhibition of spore germination (Botrytis elliptica [2]): effective inhibitors
effectiveness against mycelial growth compared with linalool (Botrytis elliptica [3]): slightly more effective than linalool
inhibition of mycelial growth (Botrytis elliptica [3]): effectively inhibited
effectiveness against mycelial growth compared with linalool (Phytophthora infestans [4]): more effective than linalool
inhibition of mycelial growth (Phytophthora infestans [4]): effectively inhibited

Cc1ccc(C(C)C)cc1 [p-cymene]
hydroxylation of alternative substrates by PINH (recombinant FaPINH): hydroxylated at C7

CC1=CC[C@H](C(C)C)C=C1 [α-phellandrene]
hydroxylation of alternative substrates by PINH (recombinant FaPINH): hydroxylated at the same position

C=C(C)[C@H]1CC=C(C)CC1 [limonene]
hydroxylation of alternative substrates by PINH (recombinant FaPINH): efficiently hydroxylated

CC1=CCC2CC1C2(C)C (stereo not drawn) [α-pinene]
conversion into myrtenol by intact yeast cells [5]: efficiently converted
substrate hydroxylated at C-10 to form myrtenol (recombinant FaPINH; microsomes from FaPINH expressing yeast, 2 hours at 30° C.): over 50%

CC(C)=CCC/C(C)=C/C(=O)O [geranic acid]
antimicrobial effect compared with geraniol (plant pathogens): more effective than geraniol

CC(C)=CCCC(C)=CC=O [citral]
antimicrobial effect compared with geraniol (plant pathogens): more effective than geraniol

C=C(C)C1CC=C(C=O)CC1 (stereo not shown) [perilla aldehyde]
effectiveness against mycelial growth compared with linalool (Pythium aphanidermatum): more effective
inhibition of mycelial growth (Pythium aphanidermatum): effectively inhibited
inhibition of spore germination (Phytophthora infestans [1]): effective inhibitors
effectiveness against spore germination relative to linalool (Phytophthora infestans [1]; FIG. 7A, more effective than linalool): about 10 fold
effect on spore germination at the concentration tested (Botrytis elliptica [2]): completely blocks germination
inhibition of spore germination (Botrytis elliptica [2]): effective inhibitors
effectiveness against mycelial growth compared with linalool (Botrytis elliptica [3]): slightly more effective than linalool
inhibition of mycelial growth (Botrytis elliptica [3]): effectively inhibited
effectiveness against mycelial growth compared with linalool (Phytophthora infestans [4]): more effective than linalool
inhibition of mycelial growth (Phytophthora infestans [4]): effectively inhibited
effectiveness against mycelial growth relative to linalool (Phytophthora infestans [4]; more effective than linalool): 4-5 fold
antimicrobial effect compared with perilla alcohol (plant pathogens): more effective than perilla alcohol

CC1(C)C2CC=C(CO)C1C2 (stereo not shown) [myrtenol]
effectiveness against mycelial growth compared with linalool (Pythium aphanidermatum): less effective than linalool
inhibition of mycelial growth (Pythium aphanidermatum): effectively inhibited
inhibition of spore germination (Phytophthora infestans [1]): effective inhibitors
inhibition of spore germination (Botrytis elliptica [2]): effective inhibitors
effectiveness against mycelial growth compared with linalool (Botrytis elliptica [3]): slightly more effective than linalool
inhibition of mycelial growth (Botrytis elliptica [3]): effectively inhibited
effectiveness against mycelial growth compared with linalool (Phytophthora infestans [4]): more effective than linalool
inhibition of mycelial growth (Phytophthora infestans [4]): effectively inhibited

C=C(C)[C@@H]1CC=C(C(=O)O)CC1 [perillic acid]
antimicrobial effect compared with perilla alcohol (plant pathogens): more effective than perilla alcohol

CC1=CCC(=C(C)C)CC1 [α-terpinolene]
hydroxylation of alternative substrates by PINH (recombinant FaPINH): hydroxylated at the same position

CC1=CC[C@H]2C[C@@H]1C2(C)C [(−)-α-pinene]
substrate preference between enantiomers (recombinant FaPINH; (−)- versus (+)-α-pinene): preferred to (+)-α-pinene
